Results on 13 compounds are retold here after BindingDB's records for doi:10.1021/jm980718d (University of Massachusetts Medical Center, 1999).

Where only a bound is given, the exact number is not on record here.

The target of the first test is Uracil-DNA glycosylase (Human herpesvirus 1) (UniProt P10186). The test is described as follows: Inhibitory potency against HSV-1 UDG (Herpes Simplex virus type-I Uracil DNA glycosylase).
Uracil-DNA glycosylase (Human herpesvirus 1), sequence (P10186 whole entry, looked up): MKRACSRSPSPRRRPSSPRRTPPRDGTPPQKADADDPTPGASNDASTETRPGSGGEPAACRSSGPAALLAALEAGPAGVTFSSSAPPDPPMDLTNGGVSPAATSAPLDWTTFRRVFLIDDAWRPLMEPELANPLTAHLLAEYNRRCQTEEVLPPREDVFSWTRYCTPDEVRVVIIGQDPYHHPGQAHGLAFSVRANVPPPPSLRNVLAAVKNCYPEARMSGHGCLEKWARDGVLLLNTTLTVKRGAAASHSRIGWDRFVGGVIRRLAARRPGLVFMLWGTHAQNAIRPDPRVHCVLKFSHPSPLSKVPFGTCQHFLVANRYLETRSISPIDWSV
Broadly, the IC50 is the concentration that gives 50% inhibition. Higher therefore signals weaker potency in that assay. As for `CCCCCCc1ccc(Nc2cc(=O)[nH]c(=O)n2CCO)cc1` [6-(4-Hexyl-phenylamino)-1-(2-hydroxy-ethyl)-1H-pyrimidine-2,4-dione], the 50% inhibitory concentration (IC50) came out at 20 µM.

The compound `CCCCCCc1ccc(Nc2cc(=O)[nH]c(=O)[nH]2)cc1` [6-(4-Hexyl-phenylamino)-1H-pyrimidine-2,4-dione] came in with an IC50 of 30 µM. This IC50 is about 1.5-fold higher than that of the compound before.

`CCCCCCc1ccc(Nc2cc(=O)[nH]c(=O)n2CCOC)cc1` [6-(4-Hexyl-phenylamino)-1-(2-methoxy-ethyl)-1H-pyrimidine-2,4-dione]: the IC50 is more than 100 µM. Same read-out and setting: to `CCCCCCc1ccc(Nc2cc(=O)[nH]c(=O)n2CCCO)cc1` [6-(4-Hexyl-phenylamino)-1-(3-hydroxy-propyl)-1H-pyrimidine-2,4-dione] belongs 90 µM. On the same count and under the same terms, to `CCCCCCc1ccc(Nc2cc(=O)[nH]c(=O)n2CCCOC)cc1` [6-(4-Hexyl-phenylamino)-1-(3-methoxy-propyl)-1H-pyrimidine-2,4-dione] belongs more than 100 µM; to `CCCCCCOc1ccc(Nc2cc(=O)[nH]c(=O)[nH]2)cc1` [6-(4-Hexyloxy-phenylamino)-1H-pyrimidine-2,4-dione], 30 µM; to `CCc1ccc(Nc2cc(=O)[nH]c(=O)[nH]2)cc1` [6-(4-Ethyl-phenylamino)-1H-pyrimidine-2,4-dione], 500 µM.

The target is the same in the next test. Nature of the test: Inhibitory potency against HSV-1 Uracil-DNA glycosylase.
In turn, `CCCCCCCCOc1ccc(Nc2cc(=O)[nH]c(=O)[nH]2)cc1` [6-(4-Octyloxy-phenylamino)-1H-pyrimidine-2,4-dione] came in with a 50% inhibitory concentration (IC50) of 25 µM.

Take `CCCCCCCCc1ccc(Nc2cc(=O)[nH]c(=O)n2CCO)cc1` [1-(2-Hydroxy-ethyl)-6-(4-octyl-phenylamino)-1H-pyrimidine-2,4-dione]: the midpoint of inhibition, the IC50, lay at 10 µM. The same measure, in the same setting: to `CCCCCCCCc1ccc(Oc2cc(=O)[nH]c(=O)[nH]2)cc1` [6-(4-Octyl-phenoxy)-1H-pyrimidine-2,4-dione] belongs 150 µM; to `CCCCCCCCc1ccc(Nc2cc(=O)[nH]c(=O)[nH]2)cc1` [6-(4-Octyl-phenylamino)-1H-pyrimidine-2,4-dione], 8 µM. Take `CCCCCCCCCCc1ccc(Nc2cc(=O)[nH]c(=O)[nH]2)cc1` [6-(4-Decyl-phenylamino)-1H-pyrimidine-2,4-dione]: half-maximal inhibition (IC50) was put at 35 µM. This IC50 is about 4.4-fold higher than that of the compound before.

The compound `CCCCCCCCc1ccc(Nc2cc(=O)[nH]c(=O)n2CCOC)cc1` [1-(2-Methoxy-ethyl)-6-(4-octyl-phenylamino)-1H-pyrimidine-2,4-dione] showed an IC50 of 15 µM.
